Legend:
[1] = test system: Mites; test: Controlled environment, 2% glyceride emulsion: mite survival on wheat; type: in vivo
Protocol: (§1) Plant materials used for tests were either branches obtained from the fields or trees grew in pots in a green house.
(§2) Plants growing in pot were inoculated with pests or pathogen and sprayed with 2% glyceride emulsions. Death rate of pests or number of lesions was evaluated one to three weeks after treatment.
(§3) Since mineral oil has been widely used for insect pest and disease control in agriculture (Taschenberg, 1952; Walsh et al., 2000), it was included in the experiments for comparison.

[2] = test system: TSWV; test: Controlled environment, 2% glyceride emulsion: TSWV severity in tomatoes; type: in vivo, tomato spotted wilt virus (TSWV)
Protocol: as §1, §2, §3

[3] = test system: TMV (II); test: Controlled environment, 2% glyceride emulsion: TMV (II) severity in tomatoes; type: in vivo, tomato mosaic virus (TMV II)
Protocol: as §1, §2, §3

[4] = test system: Mites; test: Controlled environment, 2% glyceride emulsion: mite survival on apple; type: in vivo, European red mite (ERM); details: ‘Delicious’ apple
Text: as §1
(§4) To test the effects of different glycerides on over winter pests such as San Jose Scale (SJS) or European red mite (ERM) on pome or stone fruit trees, stems from dormant ‘Delicious’ apple trees and ‘Feng Huang’ peach trees infested with SJS were collected and dipped in 2% of different glyceride emulsions with the untreated served as control. Stems were then trimmed to 25 cm long by removing from the base, put in a plate with the base submerging in 1-cm thick water, and incubated at 23 degree C for 2 weeks in a chamber. After incubation, 15 overwintering SJS (‘Black-cap’ stage of first instar) per stem were examined microscopically and assessed for viability. Apple or peach stems containing ERM eggs were collected in late dormant and treated as described above and incubated at 28 degree C., 80% relative humidity, and 16-hour light/8-hour dark cycle. Mite viability was evaluated by the following method. Stem segment were impaled onto insect pins that had been driven through 10×12 cm white posterboard containing a thin coat of sticky gel to trip newly hatched mites and facilitate their counting. Eggs were examined every 2 days until hatch was complete. […]

[5] = test system: Mite; test: Controlled environment, 2% glyceride emulsion: mite survival on orange; type: in vivo; details: ‘Qi Cheng’ orange
Protocol: as §1, §2, §3

[6] = test system: Verticillium wilt; test: Controlled environment, 2% glyceride emulsion: Verticillium wilt severity in tomatoes; type: in vivo
Protocol: as §1, §2, §3

[7] = test system: Verticillium wilt; test: Controlled environment, 2% glyceride emulsion: Verticillium wilt severity on cabbage; type: in vivo
Protocol: as §1, §2, §3

[8] = test system: TICV; test: Controlled environment, 2% glyceride emulsion: TICV severity in tomatoes; type: in vivo, tomato infectious chlorosis virus (TICV)
Protocol: as §1, §2, §3

[9] = test system: Fusarium wilt; test: Controlled environment, 2% glyceride emulsion: Fusarium wilt severity on cotton; type: in vivo
Protocol: as §1, §2, §3

[10] = test system: Aphids; test: Controlled environment, 2% glyceride emulsion: aphid survival on wheat; type: in vivo
Protocol: as §1, §2, §3

[11] = test system: Aphids; test: Controlled environment, 2% glyceride emulsion: aphid survival on cabbage; type: in vivo
Protocol: as §1, §2, §3

[12] = test system: Psorosis; test: Controlled environment, 2% glyceride: psorosis severity on orange; type: in vivo; details: ‘Qi Cheng’ orange
Protocol: as §1, §2, §3

[13] = test system: leaf scald; test: Controlled environment, 2% glyceride emulsion: leaf scald severity on wheat; type: in vivo
Protocol: as §1, §2, §3

[14] = test system: Powdery mildew; test: Controlled environment, 2% glyceride: powdery mildew severity on peach; type: in vivo; details: ‘Feng Hung’ peach
Protocol: as §1, §2, §3

[15] = test system: Whitefly; test: Controlled environment, 2% glyceride emulsion: whitefly survival on cotton; type: in vivo
Protocol: as §1, §2, §3

[16] = test system: Verticillium wilt; test: Controlled environment, 2% glyceride emulsion: Verticillium wilt severity on cotton; type: in vivo
Protocol: as §1, §2, §3

[17] = test system: Aphids; test: Controlled environment, 2% glyceride emulsion: aphid survival on apple; type: in vivo; details: ‘Delicious’ apple
Protocol: as §1, §2, §3

[18] = test system: Bacterial canker; test: Controlled environment, 2% glyceride: bacterial canker severity on peach; type: in vivo; details: ‘Feng Hung’ peach
Protocol: as §1, §2, §3

[19] = test system: Whitefly; test: Controlled environment, 2% glyceride emulsion: whitefly survival on cabbage; type: in vivo
Protocol: as §1, §2, §3

[20] = test system: Whitefly; test: Controlled environment, 2% glyceride emulsion: whitefly survival on apple; type: in vivo; details: ‘Delicious’ apple
Protocol: as §1, §2, §3

[21] = test system: Aphids; test: Controlled environment, 2% glyceride emulsion: aphid survival on cotton; type: in vivo
Protocol: as §1, §2, §3

[22] = test system: TMV (I); test: Controlled environment, 2% glyceride emulsion: TMV (I) severity in tomatoes; type: in vivo, tobacco mosaic virus (TMV I)
Protocol: as §1, §2, §3

[23] = test system: Bacterial ring rot; test: Controlled environment, 2% glyceride emulsion: bacterial ring rot severity on potato; type: in vivo
Protocol: as §1, §2, §3

[24] = test system: Aphids; test: Controlled environment, 2% glyceride emulsion: aphid survival on tomato; type: in vivo
Protocol: as §1, §2, §3

[25] = test system: Mites; test: Controlled environment, 2% glyceride emulsion: mite survival on tomato; type: in vivo
Protocol: as §1, §2, §3

[26] = test system: Fusarium wilt; test: Controlled environment, 2% glyceride emulsion: Fusarium wilt severity in tomatoes; type: in vivo
Protocol: as §1, §2, §3

[27] = test system: Verticillium wilt; test: Controlled environment, 2% glyceride emulsion: Verticillium wilt severity on potato; type: in vivo
Protocol: as §1, §2, §3

[28] = test system: Leaf-spot; test: Controlled environment, 2% glyceride emulsion: leaf-spot severity on cabbage; type: in vivo
Protocol: as §1, §2, §3

[29] = test system: Powdery mildew; test: Controlled environment, 2% glyceride: powdery mildew severity on apple; type: in vivo; details: ‘Delicious’ apple
Protocol: as §1, §2, §3

[30] = test system: Barley strip; test: Controlled environment, 2% glyceride emulsion: Barley strip severity on wheat; type: in vivo
Protocol: as §1, §2, §3

[31] = test system: Leaf spot; test: Controlled environment, 2% glyceride: leaf spot severity on grape; type: in vivo; details: ‘Long Yan’ grape
Protocol: as §1, §2, §3

[32] = test system: Brown rot; test: Controlled environment, 2% glyceride: brown rot severity on orange; type: in vivo; details: ‘Qi Cheng’ orange
Protocol: as §1, §2, §3

[33] = test system: Aphids; test: Controlled environment, 2% glyceride emulsion: aphid survival on orange; type: in vivo; details: ‘Qi Cheng’ orange
Protocol: as §1, §2, §3

[34] = test system: Psylla; test: Controlled environment, 2% glyceride emulsion: psylla survival on apple; type: in vivo; details: ‘Delicious’ apple
Protocol: as §1, §2, §3

[35] = test system: SJS; test: Controlled environment, 2% glyceride emulsion: SJS survival on apple; type: in vivo, San Jose Scale (SJS); details: ‘Delicious’ apple
Text: as §1, §4

[36] = test system: Powdery mildew; test: Controlled environment, 2% glyceride: powdery mildew severity on grape; type: in vivo; details: ‘Long Yan’ grape
Protocol: as §1, §2, §3

[37] = test system: Scab; test: Controlled environment, 2% glyceride: scab severity on apple; type: in vivo; details: ‘Delicious’ apple
Protocol: as §1, §2, §3

[38] = test system: Bacterial Spot; test: Controlled environment, 2% glyceride emulsion: bacterial spot severity in tomatoes; type: in vivo
Protocol: as §1, §2, §3

CCCCCCCCCCCC(=O)OCC(O)CO (centres unmarked) [Monolaurin]
pest survival (%), Wheat, Mites [1]: 33e %
disease severity, TSWV [2]: 27e % of untreated control
disease severity, TMV (II) [3]: 43d % of untreated control
pest survival (%), Apples, Mites [4]: 0g %
pest survival (%), Oranges, Mite [5]: 39e %
disease severity, Verticillium wilt [6]: 26f % of untreated control
disease severity, Cabbage, Verticillium wilt [7]: 46de % of untreated control
disease severity, TICV [8]: 33f % of untreated control
disease severity, Cotton, Fusarium wilt [9]: 43e^z % of untreated control
pest survival (%), Wheat, Aphids [10]: 21e %
pest survival (%), Cabbage, Aphids [11]: 17e %
disease severity, Oranges, Psorosis [12]: 32d % of untreated control
disease severity, Wheat, leaf scald [13]: 32f % of untreated control
disease severity, Peaches, Powdery mildew [14]: 13g % of untreated control
pest survival (%), Cotton, Whitefly [15]: 31f %
disease severity, Cotton, Verticillium wilt [16]: 48d % of untreated control
pest survival (%), Apples, Aphids [17]: 34e %
disease severity, Peaches, Bacterial canker [18]: 24f % of untreated control
pest survival (%), Cabbage, Whitefly [19]: 28f %
pest survival (%), Apples, Whitefly [20]: 31e %
pest survival (%), Cotton, Aphids [21]: 30e %
disease severity, TMV (I) [22]: 37e % of untreated control
disease severity, Potato, Bacterial ring rot [23]: 47e % of untreated control
pest survival (%), Tomato, Aphids [24]: 27e %
pest survival (%), Tomato, Mites [25]: 34e %
disease severity, Fusarium wilt [26]: 29f % of untreated control
disease severity, Potato, Verticillium wilt [27]: 37e % of untreated control
disease severity, Cabbage, Leaf-spot [28]: 23f % of untreated control
disease severity, Apples, Powdery mildew [29]: 18f % of untreated control
disease severity, Wheat, Barley strip [30]: 19f % of untreated control
disease severity, Grapes, Leaf spot [31]: 37f % of untreated control
disease severity, Oranges, Brown rot [32]: 34e % of untreated control
pest survival (%), Oranges, Aphids [33]: 31e %
pest survival (%), Apples, Psylla [34]: 35e %
pest survival (%), Apples, SJS [35]: 0f %
disease severity, Grapes, Powdery mildew [36]: 16g % of untreated control
disease severity, Apples, Scab [37]: 14f^z % of untreated control
disease severity, Bacterial Spot [38]: 18f^z % of untreated control
